molecular target: SMYD3 (Homo sapiens (Human), UniProt Q9H7B4); assay: SMYD3 biochemical assay (SMYD3 enzyme assay on MEKK2 protein substrate, 3H-SAM scintillation proximity assay); details: read-out: SMYD3 Biochem IC50 (μM)*
Text: S-adenosylmethionine (SAM), S-adenosylhomocysteine (SAH), Tris, Tween20, dimethylsulfoxide (DMSO), bovine skin gelatin (BSG), and Tris(2-carboxyethyl)phosphine hydrochloride solution (TCEP) were purchased from Sigma-Aldrich at the highest level of purity possible. ^3H-SAM was purchase from American Radiolabeled Chemicals with a specific activity of 80 Ci/mmol. 384-well opaque white OptiPlates and SPA beads (Perkin Elmer, catalog # RPNQ0013) were purchased from PerkinElmer.
N-terminally GST-tagged MEKK2 (MAP3K2) protein corresponding to reference sequence AAF63496.3 was purchased from Life Technologies (catalog # PV4010). This protein was expressed in High Five insect cells and purified to >85% purity. Protein identity was confirmed by MS/MS analysis after proteolytic digestion. The protein sequence used was:
Full-length human SMYD3 isoform 1 (BAB86333) was inserted into a modified pET21b plasmid containing a His6 tag and TEV and SUMO cleavage sites.
E. coli (BL21 codonplus RIL strain, Stratagene) were transformed with plasmid pEPZ553 by mixing competent cells and plasmid DNA and incubating on ice for 30 minutes followed by heat shock at 42° C. for 1 minute and cooling on ice for 2 minutes. Transformed cells were grown and selected on LB agar with 100 μg/mL ampicillin and 17 μg/mL chloramphenicol at 37° C. overnight. A single clone was used to inoculate 200 mL of LB medium with 100 μg/mL ampicillin and 17 μg/mL chloramphenicol and incubated at 37° C. on an orbital shaker at 180 rpm. Once in log growth, the culture was diluted 1:100 into 2 L of LB medium and grown until OD600 was about 0.3 after which the culture was incubated at 15° C. and 160 rpm. Once OD600 reached about 0.4, IPTG was added to a final concentration of 0.1 mM and the cells were grown overnight at 15° C. and 160 rpm. Cells were harvested by centrifugation at 8000 rpm, for 4 minutes at 4° C. and stored at −80° C. for purification.
The column was washed with Buffer B (Buffer A plus 20 mM imidazole) and His-tagged SMYD3 was eluted with Buffer C (Buffer A plus 300 mM imidazole). The His tag, TEV and SUMO cleavage sites were removed generating native SMYD3 by addition of ULP1 protein at a ratio of 1:200 (ULP1:SMYD3). Imidazole was removed by dialysis overnight in Buffer A. The dialyzed solution was applied to a second Nickel column and the native SMYD3 protein was collected from the column flow-through. The flow-through was dialyzed in Buffer D (25 mM Tris, 5% glycerol, 5 mM β-mercaptoethanol, 50 mM NaCl, pH7.8) and ULP1 was removed using a Q sepharose fast flow column.
General Procedure for SMYD3 Enzyme Assays on MEKK2 Protein Substrate
The assays were all performed in a buffer consisting of 25 mM Tris-Cl pH 8.0, 1 mM TCEP, 0.005% BSG, and 0.005% Tween 20, prepared on the day of use. […] DMSO (1 ul) was added to Columns 11, 12, 23, 24, rows A-H for the maximum signal control and 1 ul of SAH, a known product and inhibitor of SMYD3, was added to columns 11, 12, 23, 24, rows I-P for the minimum signal control. A cocktail (40 ul) containing the SMYD3 enzyme was added by Multidrop Combi (Thermo-Fisher). The compounds were allowed to incubate with SMYD3 for 30 min at room temperature, then a cocktail (10 ul) containing SAM and MEKK2 was added to initiate the reaction (final volume=51 ul). […] The assays were stopped by the addition of non-radiolabeled SAM (10 ul) to a final concentration of 100 uM, which dilutes the ^3H-SAM to a level where its incorporation into MEKK2 is no longer detectable. Radiolabeled MEKK2 was detected using a scintillation proximity assay (SPA). 10 uL of a 10 mg/mL solution of SPA beads in 0.5 M citric acid was added and the plates centrifuged at 600 rpm for 1 min to precipitate the radiolabeled MEKK2 onto the SPA beads.

Chain of SMYD3 (Q9H7B4 whole entry): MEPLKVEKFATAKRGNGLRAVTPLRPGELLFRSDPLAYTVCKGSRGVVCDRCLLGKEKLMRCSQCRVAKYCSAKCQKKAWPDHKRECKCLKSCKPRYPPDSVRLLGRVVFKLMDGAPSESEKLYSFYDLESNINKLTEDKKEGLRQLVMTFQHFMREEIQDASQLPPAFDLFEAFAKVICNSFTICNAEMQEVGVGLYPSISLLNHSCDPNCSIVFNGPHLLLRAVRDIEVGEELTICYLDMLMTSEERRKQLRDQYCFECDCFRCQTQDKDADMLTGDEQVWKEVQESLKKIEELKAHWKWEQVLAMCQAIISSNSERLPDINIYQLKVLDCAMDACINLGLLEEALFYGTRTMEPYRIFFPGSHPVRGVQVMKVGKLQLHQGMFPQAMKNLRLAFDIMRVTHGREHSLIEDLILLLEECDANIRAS

Compound	IC50 [µM]
CC(=O)Nc1ccc(S(=O)(=O)N2CCC(NC(=O)c3ccncc3)CC2)cc1 [compound 4, N-(1-((4-acetamidophenyl)sulfonyl)piperidin-4-yl)isonicotinamide]	> 100
CC(=O)Nc1ccc(S(=O)(=O)N2CCC(NC(=O)c3cnccn3)CC2)cc1 [compound 5, N-(1-((4-acetamidophenyl)sulfonyl)piperidin-4-yl)pyrazine-2-carboxamide]	> 100
CC(=O)Nc1ccc(S(=O)(=O)N2CCC(NC(=O)c3cc[nH]n3)CC2)cc1 [compound 6, N-(1-((4-acetamidophenyl)sulfonyl)piperidin-4-yl)-1H-pyrazole-3-carboxamide]	> 100
CC(=O)Nc1ccc(S(=O)(=O)N2CCC(NC(=O)c3ccnn3C)CC2)cc1 [compound 7, N-(1-((4-acetamidophenyl)sulfonyl)piperidin-4-yl)-1-methyl-1H-pyrazole-5-carboxamide]	> 100
CC(=O)Nc1ccc(S(=O)(=O)N2CCC(NC(=O)c3cnn(C)c3)CC2)cc1 [compound 8, N-(1-((4-acetamidophenyl)sulfonyl)piperidin-4-yl)-1-methyl-1H-pyrazole-4-carboxamide]	> 100
CC(=O)Nc1ccc(S(=O)(=O)N2CCC(NC(=O)c3cn(C)cn3)CC2)cc1 [compound 9, N-(1-((4-acetamidophenyl)sulfonyl)piperidin-4-yl)-1-methyl-1H-imidazole-4-carboxamide]	60.5
CC(=O)Nc1ccc(S(=O)(=O)N2CCC(NC(=O)c3cn(C4CC4)nn3)CC2)cc1 [compound 10, N-(1-((4-acetamidophenyl)sulfonyl)piperidin-4-yl)-1-cyclopropyl-1H-1,2,3-triazole-4-carboxamide]	17
N[C@H]1CC[C@H](NC(=O)c2cn(C3CC3)nn2)CC1 [compound 11, N-((1r,4r)-4-aminocyclohexyl)-1-cyclopropyl-1H-1,2,3-triazole-4-carboxamide]	15.4
CC(=O)Nc1ccc(S(=O)(=O)N2CCC(NC(=O)C3CCN(CC4CC4)CC3)CC2)cc1 [compound 12, N-(1-((4-acetamidophenyl)sulfonyl)piperidin-4-yl)-1-(cyclopropylmethyl)piperidine-4-carboxamide]	45.9
CCn1ccc(C(=O)N[C@H]2CC[C@H](N)CC2)n1 [compound 13, N-((1r,4r)-4-aminocyclohexyl)-1-ethyl-1H-pyrazole-3-carboxamide]	112
CCc1cc(C(=O)N[C@H]2CC[C@H](N)CC2)on1 [compound 14, N-((1r,4r)-4-aminocyclohexyl)-3-ethylisoxazole-5-carboxamide]	104
CCn1cnc(C(=O)N[C@H]2CC[C@H](N)CC2)c1 [compound 15, N-((1r,4r)-4-aminocyclohexyl)-1-ethyl-1H-imidazole-4-carboxamide]	56.6
CCc1nc(C(=O)N[C@H]2CC[C@H](N)CC2)co1 [compound 16, N-((1r,4r)-4-aminocyclohexyl)-2-ethyloxazole-4-carboxamide]	128
CCc1cc(C(=O)N[C@H]2CC[C@H](N)CC2)ns1 [compound 17, N-((1r,4r)-4-aminocyclohexyl)-5-ethylisothiazole-3-carboxamide]	13.5
CCc1ccc(C(=O)N[C@H]2CC[C@H](N)CC2)cc1 [compound 18, N-((1r,4r)-4-aminocyclohexyl)-4-ethylbenzamide]	125
N[C@H]1CC[C@H](NC(=O)c2ccc3c(c2)OCC(=O)N3)CC1 [compound 19, N-((1r,4r)-4-aminocyclohexyl)-3-oxo-3,4-dihydro-2H-benzo[b][1,4]oxazine-7-carboxamide]	102
N[C@H]1CC[C@H](NC(=O)c2ccc3c(c2)NC(=O)CO3)CC1 [compound 20, N-((1r,4r)-4-aminocyclohexyl)-3-oxo-3,4-dihydro-2H-benzo[b][1,4]oxazine-6-carboxamide]	16
CCc1cccc(C(=O)N[C@H]2CC[C@H](N)CC2)c1 [compound 21, N-((1r,4r)-4-aminocyclohexyl)-3-ethylbenzamide]	57.5

Compound	IC50 [µM]
CCc1cncc(C(=O)N[C@H]2CC[C@H](N)CC2)c1 [compound 22, N-((1r,4r)-4-aminocyclohexyl)-5-ethylnicotinamide]	31.3
CC(=O)c1cccc(C(=O)N[C@H]2CC[C@H](N)CC2)c1 [compound 23, 3-acetyl-N-((1r,4r)-4-aminocyclohexyl)benzamide]	91.5
CC(=O)Nc1cccc(C(=O)N[C@H]2CC[C@H](N)CC2)c1 [compound 24, 3-acetamido-N-((1r,4r)-4-aminocyclohexyl)benzamide]	80.3
CCC(=O)Nc1cccc(C(=O)N[C@H]2CC[C@H](N)CC2)c1 [compound 25, N-((1r,4r)-4-aminocyclohexyl)-3-propionamidobenzamide]	84.3
N[C@H]1CC[C@H](NC(=O)c2cccc(CO)c2)CC1 [compound 26, N-((1r,4r)-4-aminocyclohexyl)-3-(hydroxymethyl)benzamide]	86
CCn1nc(C)cc1C(=O)N[C@H]1CC[C@H](N)CC1 [compound 27, N-((1r,4r)-4-aminocyclohexyl)-1-ethyl-3-methyl-1H-pyrazole-5-carboxamide]	102
Cc1cc(C(=O)N[C@H]2CC[C@H](N)CC2)n(-c2ccccc2)n1 [compound 28, N-((1r,4r)-4-aminocyclohexyl)-3-methyl-1-phenyl-1H-pyrazole-5-carboxamide]	111
CCn1nc(C)cc1C(=O)NC(c1ccccc1)C1CCNCC1 (centres unmarked) [compound 30, 1-ethyl-3-methyl-N-(phenyl(piperidin-4-yl)methyl)-1H-pyrazole-5-carboxamide]	69.2
Cc1cc(C(=O)NC(c2ccccc2)C2CCNCC2)n(-c2ccccc2)n1 (centres unmarked) [compound 31, 3-methyl-1-phenyl-N-(phenyl(piperidin-4-yl)methyl)-1H-pyrazole-5-carboxamide]	56.7
Cc1cc(C(=O)NC(c2ccccc2)C2CCNCC2)n(Cc2ccccc2)n1 (centres unmarked) [compound 32, 1-benzyl-3-methyl-N-(phenyl(piperidin-4-yl)methyl)-1H-pyrazole-5-carboxamide]	91.3
CCc1cc(C(=O)N[C@H]2CC[C@H](N)CC2)n(C)n1 [compound 37, N-((1r,4r)-4-aminocyclohexyl)-3-ethyl-1-methyl-1H-pyrazole-5-carboxamide]	59.9
CCc1ccnc(C(=O)N[C@H]2CC[C@H](N)CC2)c1 [compound 38, N-((1r,4r)-4-aminocyclohexyl)-4-ethylpicolinamide]	20.5
O=C1CNc2cc(C(=O)NC3CCNCC3)ccc2N1 [compound 39, 2-oxo-N-(piperidin-4-yl)-1,2,3,4-tetrahydroquinoxaline-6-carboxamide]	23.9
N[C@H]1CC[C@H](NC(=O)c2ccc3c(c2)CC(=O)N3)CC1 [compound 40, N-((1r,4r)-4-aminocyclohexyl)-2-oxoindoline-5-carboxamide]	2.84
N[C@H]1CC[C@H](NC(=O)c2ccc3c(c2)CC(=O)N3)CC1 [compound 42, N-((1r,4r)-4-aminocyclohexyl)-2-oxoindoline-5-carboxamide]	3.31
N[C@H]1CC[C@H](NC(=O)c2ccc3nc(O)cnc3c2)CC1 [compound 43, N-((1r,4r)-4-aminocyclohexyl)-2-hydroxyquinoxaline-6-carboxamide]	60.4
O=C1Cc2cc(C(=O)NC(c3ccccc3)C3CCNCC3)ccc2N1 (centres unmarked) [compound 44, 2-oxo-N-(phenyl(piperidin-4-yl)methyl)indoline-5-carboxamide]	14.1

— patent publication US10266526B2, “Substituted 1,2,3-triazoles as SMYD inhibitors for treating cancer” (EPIZYME, INC., priority 2014, dated 2019)
